In patent US20240218066A1, “USE OF ANTI-PD-1 ANTIBODY IN COMBINATION WITH FIRST-LINE CHEMOTHERAPY IN TREATMENT OF ADVANCED NON-SMALL CELL LUNG CANCER” (SHANGHAI JUNSHI BIOSCIENCES CO., LTD., priority 2021, published 2024):

Tests used:
[1] = test system: patients with untreated advanced NSCLC; test: Phase III clinical study, efficacy assessed by the BIRC according to RECIST 1.1; format: in vivo, human; design: reduction of the risk of progression or death, compared to standard chemotherapy / increase of PFS rate at 6 months compared to control group / increase of PFS rate at 12 months compared to control group / increase in ORR compared to control group: concentration or dose not given beside the values
Description: About 450 patients with advanced NSCLC not accompanied by EGFR-sensitive mutations and ALK fusions were randomly divided into two groups according to a 2:1 ratio, with the test group receiving toripalimab in combination with first-line standard chemotherapy and the control group receiving placebo in combination with first-line standard chemotherapy. Stratification was performed according to PD-L1 expression (TC≥1% vs TC<1%), smoking status (frequent smoking vs no smoking or little smoking), and pathological type (squamous cell carcinoma vs non-squamous cell carcinoma).
After randomization, the patients were subjected to treatment in the induction stage for 4-6 cycles, during which the patients received toripalimab/placebo+first-line standard chemotherapy. After the induction stage was over, the patients were subjected to treatment in the maintenance stage, during which patients with squamous cell carcinoma continued to receive toripalimab/placebo treatment until progressive disease, and patients with non-squamous cell carcinoma continued to receive toripalimab/placebo+pemetrexed treatment until progressive disease.
Tumor assessments were performed once every 6 weeks for the first 12 months of the study stage according to RECIST 1.1 and iRECIST; after 12 months, tumor assessments were performed every 9 weeks until progressive disease, initiation of a new anti-tumor therapy, intolerable toxicity, withdrawal of informed consent or death, 2 years of treatment with toripalimab, or other reasons as specified in the protocol, whichever occurred first.
Eligible subjects must (1) be patients with histologically and/or cytologically confirmed locally advanced (stage IIIB or IIIC) and stage IV non-small cell lung cancer that is inoperable and cannot receive radical concurrent chemoradiotherapy; (2) have at least one measurable lesion (according to RECIST 1.1); (3) have not received any systemic treatment (patients with recurrence more than 6 months after completion of prior neoadjuvant/adjuvant therapy may also be enrolled); (4) be aged between 18 and 75 years; (5) have ECOG of 0-1; (6) have an expected survival of ≥3 months; and (7) be available to provide tissue specimens for PD-L1 testing.
Unless otherwise specified, the efficacy analysis was based on the ITT set, which was analyzed by groups according to the treatment regimen to which patients were assigned at randomization.
The progression-free survival rate and median progression-free survival of the JS001+first-line standard treatment group and the placebo+first-line standard treatment group at different time points after the start of treatment were estimated by the Kaplan-Meier method, and Kaplan-Meier curves were plotted. The 95% confidence interval for progression-free survival rate at different time points (6 months and 1 year) was estimated using the Greenwood formula. The 95% confidence interval for median progression-free survival was estimated using the Brookmeyer-Crowley method where the log-log function conversion was used to reach normal approximation. Statistical test was performed on the inter-group difference by a stratified log-rank method for the total population. Statistical test was performed on the inter-group difference by a non-stratified log-rank method for the subpopulations. A stratified COX proportional hazards model was used to estimate the inter-group hazard ratio (HR) and the corresponding 95% confidence interval, and the tied events were processed by an exact method. Stratification analysis was performed using 3 stratification factors in the randomization process, including: (1) PD-L1 expression (TC≥1% vs TC<1%); (2) smoking status (frequent smoking vs no smoking or little smoking); and (3) pathological type (squamous cell carcinoma vs non-squamous cell carcinoma).
For analysis of secondary efficacy endpoints OS, DOR, and TTR, the method described above as applied to the primary efficacy endpoint PFS was used. […]

[2] = test system: patients with untreated advanced NSCLC; test: Phase III clinical study, biomarker analysis (WES, TMB, gene mutations); format: in vivo, human
Description: As of Oct. 31, 2021, whole exome sequencing (WES) was performed on tumor biopsies and matched peripheral blood from 394 patients.
Tumor mutation burden (TMB) was determined by analyzing somatic mutations within coding regions of the human genome. The median TMB in each group was 6.6 mutations per million base pairs (Mb). Tumor tissue from 122 (26.2%) patients had more than 10 mutations/Mb, 72.1% of which was also PD-L1 TC≥1% (see FIG. 6a). […] However, compared to TMB-L (i.e., low TMB) patients (TMB<10 mutations/Mb). TMB-H patients had better PFS in the toripalimab group than in the placebo group (interaction P=0.026) (see FIGS. 7a and 7b).
Gene set enrichment analysis was performed on the relevant genes to identify over-represented biological pathways. […] In addition, patients with alterations in the IL-7 signaling pathway (HGF, IRS1, IRS2, and SMARCA4) or chromatin remodeling SWI/SNF complex (SMARCA4, SMARCA2, and PBRM1) also had better PFS results from combination therapy with toripalimab (see FIGS. 12-13).

[3] = patients with non-squamous cell carcinoma
[4] = patients with squamous cell carcinoma

JS001 + standard first-line chemotherapy: toripalimab 240 mg Q3W plus albumin-bound paclitaxel+carboplatin (squamous) or pemetrexed+cisplatin/carboplatin (non-squamous)
PFS rate at 6 months ([1]; ITT): 65.3%
PFS rate at 12 months ([1]; ITT): 38.9%
increase of PFS rate at 6 months compared to control group ([1]; ITT): 16%
increase of PFS rate at 12 months compared to control group ([1]; ITT): 22.7%
HR for PFS (test vs control) ([1]; ITT population): 0.61
PFS prolonged by, compared to standard chemotherapy ([1]; ITT population): 2.5 months
reduction of the risk of progression or death, compared to standard chemotherapy ([1]; ITT population): 39%
median PFS ([1]; ITT population, RECIST 1.1): 8.3 months
Best overall response: Complete response (CR) ([1]; non-squamous cell carcinoma): 3 (1.9) N (%)
Best overall response: Deletion ([1]; non-squamous cell carcinoma): 8 (4.9) N (%)
Best overall response: Non-complete response/non-progressive disease (Non CR/Non PD) ([1]; non-squamous cell carcinoma): 0 N (%)
Best overall response: Not evaluable (NE) ([1]; non-squamous cell carcinoma): 0 N (%)
Best overall response: Partial response (PR) ([1]; non-squamous cell carcinoma): 94 (58.0) N (%)
Best overall response: Progressive disease (PD) ([1]; non-squamous cell carcinoma): 8 (4.9) N (%)
Duration of response (DOR), Median (95% confidence interval) ([1]; non-squamous cell carcinoma): NE (6.9, NE)
Objective response rate (ORR) ([1]; non-squamous cell carcinoma): 97 (59.9) N (%)
DCR ([1]; overall population): 90.9%
increase in ORR compared to control group ([1]; overall population): 20.8%
ORR ([1]; overall population, RECIST v1.1): 65.7%
HR for PFS (test vs control) [1, 3]: 0.55
ORR [1, 3]: 59.9%
increase in ORR compared to control group [1, 3]: 27.4%
median PFS [1, 3]: 10.3 months
HR for PFS (test vs control) [1, 4]: 0.63
ORR [1, 4]: 72.1%
increase in ORR compared to control group [1, 4]: 13.3%
median PFS [1, 4]: 6.9 months
Best overall response: Complete response (CR) ([1]; squamous cell carcinoma): 0 N (%)
Best overall response: Deletion ([1]; squamous cell carcinoma): 8 (5.4) N (%)
Best overall response: Non-complete response/non-progressive disease (Non CR/Non PD) ([1]; squamous cell carcinoma): 1 (0.7) N (%)
Best overall response: Not evaluable (NE) ([1]; squamous cell carcinoma): 0 N (%)
Best overall response: Partial response (PR) ([1]; squamous cell carcinoma): 106 (72.1) N (%)
Best overall response: Progressive disease (PD) ([1]; squamous cell carcinoma): 3 (2.0) N (%)
Duration of response (DOR), Median (95% confidence interval) ([1]; squamous cell carcinoma): 5.7 (5.2, 9.5)
Objective response rate (ORR) ([1]; squamous cell carcinoma): 106 (72.1) N (%)
response rate (ORR) ([2]; ITT population, as of Oct. 31, 2021): 65.7%
ORR ([2]; TMB-H patients (TMB≥10 mutations/Mb), as of Oct. 31, 2021): 72.7%
median PFS ([2]; patients carrying FA/PI3K/Akt pathway mutations): 8.9 months
median PFS ([2]; patients carrying the SMARCA4 mutation (n=48), especially non-squamous cell subgroup (n=33)): 9.9 months
